ChEMBL document CHEMBL1201862, “PubChem BioAssay data set” (2004)
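Following 48 hours of exposure in 96-well plates, responses at five concentrations were used to interpolate endpoints linearly. GI50 = concentration required for 50% inhibition of growth.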 Active and inactive are the calls of the source. Cut-off read from the data, not from the text of the source: active = GI50 up to about 1.1 µM and inactive = higher.

Experiments:
Assay in all cases: DTP human tumour cell line panel, 48 h
BT-549 = test system: BT-549
CAKI-1 = test system: CAKI-1
DU-145 = test system: DU-145
HCC 2998 = test system: HCC 2998
Hs-578T = test system: Hs-578T
KM12 = test system: KM12
LOX IMVI = test system: LOX IMVI
M14 = test system: M14
MDA-MB-231 = test system: MDA-MB-231
NCI-H226 = test system: NCI-H226
NCI-H23 = test system: NCI-H23
NCI-H522 = test system: NCI-H522
PC-3 = test system: PC-3
SK-MEL-28 = test system: SK-MEL-28
SK-MEL-2 = test system: SK-MEL-2
SK-MEL-5 = test system: SK-MEL-5
SK-OV-3 = test system: SK-OV-3
SN12C = test system: SN12C
SNB-75 = test system: SNB-75
T47D = test system: T47D

Measured: GI50

c1ccc2c3c(c(N4CCOCC4)nc2c1)CCCC3
inactive: BT-549 39.7 µM | CAKI-1 64.7 µM | DU-145 33.3 µM | HCC 2998 32.4 µM | Hs-578T 76.6 µM | KM12 38.2 µM | LOX IMVI 39.9 µM | M14 50.7 µM | MDA-MB-231 32.1 µM | NCI-H226 19.6 µM | NCI-H23 56.5 µM | NCI-H522 29.7 µM | PC-3 36.6 µM | SK-MEL-28 85.1 µM | SK-MEL-2 42.8 µM | SK-MEL-5 20.2 µM | SK-OV-3 86.1 µM | SN12C 34.2 µM | SNB-75 15.4 µM | T47D 16 µM

C=C1CC(COc2ccc3c(C)c(Cl)c(=O)oc3c2)(c2ccccc2)OC1=O (stereo not given)
inactive: BT-549 1.53 µM | CAKI-1 1.37 µM | DU-145 3.01 µM | HCC 2998 1.71 µM | Hs-578T 5.58 µM | KM12 2.48 µM | MDA-MB-231 3.78 µM | NCI-H226 2.34 µM | NCI-H23 1.57 µM | NCI-H522 1.14 µM | PC-3 1.9 µM | SK-MEL-28 2.11 µM | SK-MEL-2 1.75 µM | SK-MEL-5 1.74 µM | SK-OV-3 5.92 µM | SN12C 6.1 µM | SNB-75 3.47 µM | T47D 2.04 µM
active: LOX IMVI 0.887 µM | M14 1.04 µM

CN(C)c1ccc(C=c2c3ccccc3n3c2c2c([n+]3C)CCCC2)cc1
active: BT-549 0.186 µM | CAKI-1 0.908 µM | DU-145 0.245 µM | HCC 2998 0.0792 µM | Hs-578T 0.351 µM | KM12 0.0681 µM | LOX IMVI 0.143 µM | M14 0.208 µM | MDA-MB-231 0.575 µM | NCI-H226 0.447 µM | NCI-H23 0.269 µM | NCI-H522 0.161 µM | PC-3 0.219 µM | SK-MEL-28 0.542 µM | SK-MEL-2 0.173 µM | SK-MEL-5 0.0687 µM | SK-OV-3 0.32 µM | SN12C 0.146 µM | SNB-75 0.0796 µM | T47D 0.0191 µM

CC(C)CCC/C(CBr)=C(\Cl)CCl
inactive: BT-549 1.82 µM | CAKI-1 5.06 µM | DU-145 5.52 µM | HCC 2998 8.59 µM | Hs-578T 2.45 µM | KM12 2.15 µM | M14 1.93 µM | MDA-MB-231 2.81 µM | NCI-H226 7.89 µM | NCI-H23 2.4 µM | PC-3 4.76 µM | SK-MEL-28 2.07 µM | SK-MEL-2 1.46 µM | SK-MEL-5 1.95 µM | SK-OV-3 7.82 µM | SN12C 2.82 µM | SNB-75 1.95 µM | T47D 1.17 µM
active: LOX IMVI 0.0728 µM | NCI-H522 0.15 µM

CCOC(=O)c1ccc(-n2cnc(-c3ccc([N+](=O)[O-])cc3)c2)cc1
inactive: BT-549 36.5 µM | CAKI-1 > 100 µM | DU-145 > 100 µM | HCC 2998 > 100 µM | Hs-578T > 100 µM | KM12 > 100 µM | LOX IMVI > 100 µM | M14 > 100 µM | MDA-MB-231 > 100 µM | NCI-H226 > 100 µM | NCI-H23 82.6 µM | NCI-H522 13.1 µM | PC-3 > 100 µM | SK-MEL-28 > 100 µM | SK-MEL-2 > 100 µM | SK-MEL-5 25.3 µM | SK-OV-3 > 100 µM | SN12C > 100 µM | SNB-75 40.6 µM | T47D 95.7 µM

Cc1cc2nc3ccc(N(C)C)cc3[s+]c2cc1N [TOLONIUM CHLORIDE]
inactive: BT-549 11.7 µM | CAKI-1 23.5 µM | DU-145 15.7 µM | HCC 2998 3.7 µM | Hs-578T 5.12 µM | KM12 3.84 µM | LOX IMVI 1.96 µM | M14 2.24 µM | MDA-MB-231 2.41 µM | NCI-H226 8.22 µM | NCI-H23 2.21 µM | NCI-H522 2.62 µM | PC-3 1.58 µM | SK-MEL-28 13.6 µM | SK-MEL-2 3.5 µM | SK-OV-3 9.71 µM | SN12C 3.1 µM | SNB-75 11 µM | T47D 5.2 µM
active: SK-MEL-5 0.641 µM
